Measured values reported in ChEMBL document CHEMBL2439971, “Design, synthesis and antiproliferative evaluation of fluorenone analogs with DNA topoisomerase I inhibitory properties” (Bioorg Med Chem, 2013).
Activity calls are given as the source filed them. No cut-off for these calls is given here.

Tests used:
HCT-116 = assay: Cytotoxicity against human HCT116 cells at 10 uM after 48 hrs by sulforhodamine B assay relative to control; assay type: functional
SF-295 = assay: Cytotoxicity against human SF295 cells at 10 uM after 48 hrs by sulforhodamine B assay relative to control; assay type: functional
HOP-62 = assay: Cytotoxicity against human HOP62 cells at 10 uM after 48 hrs by sulforhodamine B assay relative to control; assay type: functional
HT-29 = assay: Cytotoxicity against human HT-29 cells at 10 uM after 48 hrs by sulforhodamine B assay relative to control; assay type: functional
SNB-75 = assay: Cytotoxicity against human SNB75 cells at 10 uM after 48 hrs by sulforhodamine B assay relative to control; assay type: functional
CAKI-1 = assay: Cytotoxicity against human CAKI-1 cells at 10 uM after 48 hrs by sulforhodamine B assay relative to control; assay type: functional
Malme-3M = assay: Cytotoxicity against human MALME-3M cells at 10 uM after 48 hrs by sulforhodamine B assay relative to control; assay type: functional
OVCAR-4 = assay: Cytotoxicity against human OVCAR4 cells at 10 uM after 48 hrs by sulforhodamine B assay relative to control; assay type: functional
CCRF-CEM = assay: Cytotoxicity against human CCRF-CEM cells at 10 uM after 48 hrs by sulforhodamine B assay relative to control; assay type: functional
SF-268 = assay: Cytotoxicity against human SF268 cells at 10 uM after 48 hrs by sulforhodamine B assay relative to control; assay type: functional
NCI-H226 = assay: Cytotoxicity against human NCI-H226 cells at 10 uM after 48 hrs by sulforhodamine B assay relative to control; assay type: functional
NCI-H522 = assay: Cytotoxicity against human NCI-H522 cells at 10 uM after 48 hrs by sulforhodamine B assay relative to control; assay type: functional
NCI-H322M = assay: Cytotoxicity against human NCI-H322M cells at 10 uM after 48 hrs by sulforhodamine B assay relative to control; assay type: functional
K562 = assay: Cytotoxicity against human K562 cells at 10 uM after 48 hrs by sulforhodamine B assay relative to control; assay type: functional
MDA-MB-468 = assay: Cytotoxicity against human MDA-MB-468 cells at 10 uM after 48 hrs by sulforhodamine B assay relative to control; assay type: functional
M14 = assay: Cytotoxicity against human M14 cells at 10 uM after 48 hrs by sulforhodamine B assay relative to control; assay type: functional
UO-31 = assay: Cytotoxicity against human UO31 cells at 10 uM after 48 hrs by sulforhodamine B assay relative to control; assay type: functional
NCI/ADR-RES = assay: Cytotoxicity against human NCI/ADR-RES cells at 10 uM after 48 hrs by sulforhodamine B assay relative to control; assay type: functional
[1] = Cytotoxicity against human Hs 578T cells at 10 uM after 48 hrs by sulforhodamine B assay relative to control; assay type: functional
SK-MEL-28 = assay: Cytotoxicity against human SK-MEL-28 cells at 10 uM after 48 hrs by sulforhodamine B assay relative to control; assay type: functional
Homo sapiens = organism: Homo sapiens; assay: Inhibition of telomerase (unknown origin) at 10 uM TRAP assay
TK-10 = assay: Cytotoxicity against human TK10 cells at 10 uM after 48 hrs by sulforhodamine B assay relative to control; assay type: functional
A549 = assay: Cytotoxicity against human A549 cells at 10 uM after 48 hrs by sulforhodamine B assay relative to control; assay type: functional
SK-MEL-2 = assay: Cytotoxicity against human SK-MEL-2 cells at 10 uM after 48 hrs by sulforhodamine B assay relative to control; assay type: functional
OVCAR-3 = assay: Cytotoxicity against human OVCAR3 cells at 10 uM after 48 hrs by sulforhodamine B assay relative to control; assay type: functional
OVCAR-8 = assay: Cytotoxicity against human OVCAR8 cells at 10 uM after 48 hrs by sulforhodamine B assay relative to control; assay type: functional
UACC-62 = assay: Cytotoxicity against human UACC62 cells at 10 uM after 48 hrs by sulforhodamine B assay relative to control; assay type: functional
DU-145 = assay: Cytotoxicity against human DU145 cells at 10 uM after 48 hrs by sulforhodamine B assay relative to control; assay type: functional
RXF 393 = assay: Cytotoxicity against human RXF393 cells at 10 uM after 48 hrs by sulforhodamine B assay relative to control; assay type: functional
SN12C = assay: Cytotoxicity against human SN12C cells at 10 uM after 48 hrs by sulforhodamine B assay relative to control; assay type: functional
MDA-MB-435 = assay: Cytotoxicity against human MDA-MB-435 cells at 10 uM after 48 hrs by sulforhodamine B assay relative to control; assay type: functional
OVCAR-5 = assay: Cytotoxicity against human OVCAR5 cells at 10 uM after 48 hrs by sulforhodamine B assay relative to control; assay type: functional
IGROV-1 = assay: Cytotoxicity against human IGROV1 cells at 10 uM after 48 hrs by sulforhodamine B assay relative to control; assay type: functional
MCF7 = assay: Cytotoxicity against human MCF7 cells at 10 uM after 48 hrs by sulforhodamine B assay relative to control; assay type: functional
786-0 = assay: Cytotoxicity against human 786-0 cells at 10 uM after 48 hrs by sulforhodamine B assay relative to control; assay type: functional
HL-60(TB) = assay: Cytotoxicity against human HL-60(TB) cells at 10 uM after 48 hrs by sulforhodamine B assay relative to control; assay type: functional
SW-620 = assay: Cytotoxicity against human SW620 cells at 10 uM after 48 hrs by sulforhodamine B assay relative to control; assay type: functional
BT-549 = assay: Cytotoxicity against human BT549 cells at 10 uM after 48 hrs by sulforhodamine B assay relative to control; assay type: functional
PC-3 [2] = assay: Cytotoxicity against human PC3 cells at 10 uM after 48 hrs by sulforhodamine B assay relative to control; assay type: functional
NCI-H460 = assay: Cytotoxicity against human NCI-H460 cells at 10 uM after 48 hrs by sulforhodamine B assay relative to control; assay type: functional
HCC 2998 = assay: Cytotoxicity against human HCC2998 cells at 10 uM after 48 hrs by sulforhodamine B assay relative to control; assay type: functional
ACHN = assay: Cytotoxicity against human ACHN cells at 10 uM after 48 hrs by sulforhodamine B assay relative to control; assay type: functional
RPMI-8226 = assay: Cytotoxicity against human RPMI8226 cells at 10 uM after 48 hrs by sulforhodamine B assay relative to control; assay type: functional
MDA-MB-231 = assay: Cytotoxicity against human MDA-MB-231 cells at 10 uM after 48 hrs by sulforhodamine B assay relative to control; assay type: functional
[3] = Cytotoxicity against human EKVX cells at 10 uM after 48 hrs by sulforhodamine B assay relative to control; assay type: functional
KM12 = assay: Cytotoxicity against human KM12 cells at 10 uM after 48 hrs by sulforhodamine B assay relative to control; assay type: functional
T47D = assay: Cytotoxicity against human T47D cells at 10 uM after 48 hrs by sulforhodamine B assay relative to control; assay type: functional
UACC-257 = assay: Cytotoxicity against human UACC257 cells at 10 uM after 48 hrs by sulforhodamine B assay relative to control; assay type: functional
MOLT-4 = assay: Cytotoxicity against human MOLT4 cells at 10 uM after 48 hrs by sulforhodamine B assay relative to control; assay type: functional
SK-MEL-5 = assay: Cytotoxicity against human SK-MEL-5 cells at 10 uM after 48 hrs by sulforhodamine B assay relative to control; assay type: functional
NCI-H23 = assay: Cytotoxicity against human NCI-H23 cells at 10 uM after 48 hrs by sulforhodamine B assay relative to control; assay type: functional
PC-3 [4] = assay: Cytotoxicity against human PC3 cells after 48 hrs by sulforhodamine B assay; assay type: functional, cell-based; details: PC-3, 48 h
SF-539 = assay: Cytotoxicity against human SF539 cells at 10 uM after 48 hrs by sulforhodamine B assay relative to control; assay type: functional
COLO 205 = assay: Cytotoxicity against human COLO205 cells at 10 uM after 48 hrs by sulforhodamine B assay relative to control; assay type: functional
U-251 = assay: Cytotoxicity against human U251 cells at 10 uM after 48 hrs by sulforhodamine B assay relative to control; assay type: functional
SNB-19 = assay: Cytotoxicity against human SNB19 cells at 10 uM after 48 hrs by sulforhodamine B assay relative to control; assay type: functional
SR = assay: Cytotoxicity against human SR cells at 10 uM after 48 hrs by sulforhodamine B assay relative to control; assay type: functional
LOX IMVI = assay: Cytotoxicity against human LOXIMVI cells at 10 uM after 48 hrs by sulforhodamine B assay relative to control; assay type: functional
HCT-15 = assay: Cytotoxicity against human HCT15 cells at 10 uM after 48 hrs by sulforhodamine B assay relative to control; assay type: functional

O=C(CN1CCCC1)Nc1ccc2c(c1)C(=O)c1cc(NC(=O)CN3CCCC3)ccc1-2
Activity (HCT-116): 79.74%
Activity (SF-295): 86.51%
Activity (HOP-62): 88.02%
Activity (HT-29): 19.04%
Activity (SNB-75): 88.15%
Activity (CAKI-1): 91.43%
Activity (Malme-3M): 130.28%
Activity (OVCAR-4): 71.07%
Activity (CCRF-CEM): 68.3%
Activity (SF-268): 107.06%
Activity (NCI-H226): 104.39%
Activity (NCI-H522): 72.46%
Activity (NCI-H322M): 73.45%
Activity (K562): 68.94%
Activity (MDA-MB-468): 99.42%
Activity (M14): 103.87%
Activity (UO-31): 69.71%
Activity (NCI/ADR-RES): 93.68%
Activity [1]: 100.68%
Activity (SK-MEL-28): 103.08%
inhibition (Homo sapiens): inactive
Activity (TK-10): 91.73%
Activity (A549): 76.89%
Activity (SK-MEL-2): 106.76%
Activity (OVCAR-3): 113.24%
Activity (OVCAR-8): 69.01%
Activity (UACC-62): 103.81%
Activity (DU-145): 83.47%
Activity (RXF 393): 88.07%
Activity (SN12C): 87.69%
Activity (MDA-MB-435): 84.99%
Activity (OVCAR-5): 128.57%
Activity (IGROV-1): 86.73%
Activity (MCF7): 62.7%
Activity (786-0): 90.88%
Activity (HL-60(TB)): 84.5%
Activity (SW-620): 68.12%
Activity (BT-549): 101.36%
Activity (PC-3 [2]): 85.69%
Activity (NCI-H460): 88.56%
Activity (HCC 2998): 90.44%
Activity (ACHN): 102.77%
Activity (RPMI-8226): 78.34%
Activity (MDA-MB-231): 73.88%
Activity [3]: 100.27%
Activity (KM12): 85.82%
Activity (T47D): 105.79%
Activity (UACC-257): 106.11%
Activity (MOLT-4): 61.26%
Activity (SK-MEL-5): 102.03%
Activity (NCI-H23): 93.89%
IC50 (PC-3 [4]): 7.78 µM
Activity (SF-539): 99.41%
Activity (COLO 205): 89.07%
Activity (U-251): 81.2%
Activity (SNB-19): 96.18%
Activity (SR): 74.15%
Activity (LOX IMVI): 90.25%
Activity (HCT-15): 99.02%

CCCNCC(=O)Nc1ccc2c(c1)C(=O)c1cc(NC(=O)CNCCC)ccc1-2
Activity (HCT-116): 34.22%
Activity (SF-295): 78.31%
Activity (HOP-62): 70.78%
Activity (HT-29): 7.11%
Activity (SNB-75): 90.2%
Activity (CAKI-1): 84.88%
Activity (Malme-3M): 111.89%
Activity (OVCAR-4): 65.9%
Activity (CCRF-CEM): 43.54%
Activity (SF-268): 81.33%
Activity (NCI-H226): 104.17%
Activity (NCI-H522): 63.92%
Activity (NCI-H322M): 55.32%
Activity (K562): 1.15%
Activity (MDA-MB-468): 60.47%
Activity (M14): 84.8%
Activity (UO-31): 59.44%
Activity (NCI/ADR-RES): 90.61%
Activity [1]: 109.04%
Activity (SK-MEL-28): 91.46%
inhibition (Homo sapiens): inactive
Activity (TK-10): 101.22%
Activity (A549): 44.21%
Activity (SK-MEL-2): 114.94%
Activity (OVCAR-3): 101.73%
Activity (OVCAR-8): 54.46%
Activity (UACC-62): 108.2%
Activity (DU-145): 68.94%
Activity (RXF 393): 64.2%
Activity (SN12C): 79.58%
Activity (MDA-MB-435): 74.91%
Activity (OVCAR-5): 115.75%
Activity (IGROV-1): 67.45%
Activity (MCF7): 42.23%
Activity (786-0): 82.05%
Activity (HL-60(TB)): 78.59%
Activity (SW-620): 33.33%
Activity (BT-549): 97.53%
Activity (PC-3 [2]): 63.47%
Activity (NCI-H460): 47.28%
Activity (HCC 2998): 75.34%
Activity (ACHN): 72.93%
Activity (RPMI-8226): 62.56%
Activity (MDA-MB-231): 53.48%
Activity [3]: 88.56%
Activity (KM12): 65.12%
Activity (T47D): 100.55%
Activity (UACC-257): 113.51%
Activity (MOLT-4): 41.29%
Activity (SK-MEL-5): 93.78%
Activity (NCI-H23): 81.96%
IC50 (PC-3 [4]): 5.46 µM
Activity (SF-539): 86.19%
Activity (COLO 205): 53.11%
Activity (U-251): 49.16%
Activity (SNB-19): 96.69%
Activity (SR): 26.93%
Activity (LOX IMVI): 63.5%
Activity (HCT-15): 82.71%
